From PMC12344197 (Bioactive Materials, 2025)
Where a SMILES comes first, the peptide text is derived from it. The star is where a group is joined. Succinyl(20-O-(20S)-CPT) = CC[C@@]1(OC(=O)CCC(=O)*)C(=O)OCc2c1cc1n(c2=O)Cc2cc3ccccc3nc2-1; Biotin = O=C1N[C@H]2[C@H](CS[C@H]2CCCCC(=O)*)N1

What was measured:
Red blood cells (RBCs) = assay: Hemolysis assay; format: cell-based, BALB/c mice; details: mouse RBC suspension in PBS, 2 h, OD540; n = 3
4T1 cells = assay: CCK-8 assay; format: cell-based; details: 20 μM, 4 h incubation, washed, n = 6; for cell viability, no laser: dark, further 24 h
Zeta potential = format: physicochemical; details: 10 μM in PBS pH 7.4

Row | zeta potential (Zeta potential) | Compound | hemolysis (Red blood cells (RBCs)) | cell viability, no laser (4T1 cells) | cell viability, + Laser (4T1 cells; 808 nm laser 5 min 1 W cm−2, further 24 h, absence of biotin)
1 | – | CC[C@@]1(OC(=O)CCC(=O)NCCCC[C@H](NC(=O)[C@H](Cc2ccccc2)NC(=O)[C@@H](N)Cc2ccccc2)C(=O)N[C@@H](CCCCNC(=O)CCCC[C@@H]2SC[C@@H]3NC(=O)N[C@@H]32)C(=O)O)C(=O)OCc2c1cc1n(c2=O)Cc2cc3ccccc3nc2-1 [FFKK-CPT, Phe-Phe-Lys(CPT)-Lys(Biotin)] (H-FFK(Succinyl(20-O-(20S)-CPT))K(Biotin)-OH) | no significant hemolysis | – | –
2 | – | CC[C@@]1(O)C(=O)OCc2c1cc1n(c2=O)Cc2cc3ccccc3nc2-1 [Free CPT, camptothecin] | – | 49.3% | –
3 | +23.9 mV | CN1C(=CC=C2CCCC(C=CC3=[N+](C)c4ccccc4C3(C)C)=C2Cl)C(C)(C)c2ccccc21.[Cl-] [free IR775, IR775] | – | above 80% | 38.3%
